Measurements as given in patent US10577361B2, “Dopamine D3 receptor antagonists having a morpholine moiety” (Indivior UK Limited, priority 2015, dated 2020).
Structures can show the parent of a compound that is named as a salt.

What was measured:
[1] = molecular target: human dopamine type 3 receptor (hD3) (Homo sapiens (Human), UniProt P35462); experiment: [3H]-Spiperone binding assay at hD3 recombinant receptor (CHO-hD3 membranes); conditions: pKi only estimated to be accurate to about ±0.3-0.5
human dopamine type 3 receptor (hD3), sequence (P35462 whole entry): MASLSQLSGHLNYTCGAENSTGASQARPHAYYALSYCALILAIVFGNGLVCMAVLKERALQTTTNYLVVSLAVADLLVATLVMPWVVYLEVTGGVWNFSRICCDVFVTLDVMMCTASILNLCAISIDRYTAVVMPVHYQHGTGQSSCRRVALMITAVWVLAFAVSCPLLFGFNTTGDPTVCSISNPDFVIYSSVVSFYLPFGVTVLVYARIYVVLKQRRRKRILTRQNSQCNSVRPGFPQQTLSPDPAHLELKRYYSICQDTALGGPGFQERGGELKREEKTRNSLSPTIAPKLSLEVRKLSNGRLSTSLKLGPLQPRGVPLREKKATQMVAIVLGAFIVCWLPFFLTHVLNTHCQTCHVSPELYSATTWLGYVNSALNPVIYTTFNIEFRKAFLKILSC
Description: [^3H]-Spiperone Binding Assay at hD3 and hD4 recombinant receptors CHO cells transiently transfected with human dopamine type 3 or 4 receptors (CHO-hD3 or CHO-hD4, respectively), were re-suspended in 20 mM HEPES, 2 mM EDTA (pH 7.4), homogenised and centrifuged at 40,000 g (20 min, 4° C.). After re-suspension, homogenization and centrifugation as above, the final pellet was re-suspended in 20 mM HEPES, 100 mM NaCl, 10 mM MgCl2, 1 mM EDTA (pH 7.4) and aliquots were kept at −80° C. [^3H]-Spiperone Binding experiments were performed in 96 deep-well polypropylene plates in 50 mM Tris/HCl, 120 mM NaCl, 5 mM KCl, 5 mM MgCl2 (pH 7.4). Compounds of invention were serially diluted in DMSO at 100 fold final concentrations in the assay (1% DMSO final in the assay). Displacement was performed in the presence of 0.3 nM [^3H]-Spiperone. The reaction was initiated by the addition of membrane suspension (4 μg and 12 μg of protein for CHO-hD3- and CHO-hD4 membranes, respectively) and lasted for 90 or 100 min (for hD3 or hD4 membranes, respectively) at 23° C. in a final volume of 500 μl. Non specific binding (NSB) was determined in the presence of 1 μM Spiperone. The binding reaction was stopped by rapid filtration through GF/B filterplates pre-soaked in 0.5% polyetylenimmine (PEI) using a Packard cell harvester. After washing with ice-cold 0.9% NaCl, the plate was left to dry before the addition of Microscint 20 ([…], PerkinElmer). Radioactivity was counted with a TopCount (PerkinElmer). Data were analysed by non-linear regression analysis using GraphPad Prism 5.0 (GraphPad Software). Saturation binding experiments were performed similar to the competition binding experiments using a radioligand concentrations ranging from 0.015 to 4.0 nM. […] Characterization of the human dopamine D3 receptor expressed in transfected cell lines.

[2] = molecular target: T1, human dopamine receptor type 2, long variant (hD2L) (Homo sapiens (Human), UniProt P14416); experiment: Functional calcium assay at hD2 recombinant receptor (CHO-Gα16-hD2L cells, FLIPR); assay type: cell-based; conditions: functional pKi at hD2, dopamine EC80 challenge; for Ki: read-out: D2 fp Ki (converted)
Description: Functional Calcium Assay at hD2 Recombinant Receptor CHO cells stably expressing human dopamine receptor type 2, long variant (hD2L), coupled to Gα16 protein (CHO-Gα16-hD2L) were seeded into black walled clear-base 384-well plates at a density of 8,000 cells per well and grown overnight at 37° C. […] Compounds of invention were dissolved in DMSO and 200-fold diluted with assay buffer plus 0.01% Pluronic F-127. […] The fluorescence before compound addition (baseline) and before and after addition of agonist challenge was monitored.

[3] = molecular target: T1, human dopamine receptor type 2, long variant (hD2L); experiment: [3H]-Spiperone binding assay at hD2 recombinant receptor (CHO-Gα16-hD2L membranes)
Description: [^3H]-Spiperone Binding Assay at hD2 Recombinant Receptor CHO cells stably expressing human dopamine receptor type 2, long variant (hD2L), coupled to Gα16 protein (CHO-Gα16-hD2L) were re-suspended in 20 mM HEPES, 2 mM EDTA (pH 7.4), homogenised and centrifuged at 40,000 g (20 min, 4° C.). After re-suspension, homogenization and centrifugation as above, the final pellet was re-suspended in 20 mM HEPES, 100 mM NaCl, 10 mM MgCl2, 1 mM EDTA (pH 7.4) and aliquots were kept at −80° C. [^3H]-Spiperone Binding experiments were performed in 96 deep-well polypropylene plates in 50 mM Tris/HCl, 120 mM NaCl, 5 mM KCl, 5 mM MgCl2 (pH 7.4). […] Displacement was performed in the presence of 0.08 nM [^3H]-Spiperone. The reaction was initiated by the addition of membrane suspension (2 μg of protein for CHO-hD2 membranes) and lasted for 120 min at 23° C. in a final volume of 1000 μl. Non specific binding (NSB) was determined in the presence of 0.1 μM Spiperone. The binding reaction was stopped by rapid filtration through GF/B filterplates pre-soaked in 0.5% polyetylenimmine (PEI) using a Packard cell harvester. After washing with ice-cold 0.9% NaCl, the plate was left to dry before the addition of Microscint 20 (50 μl/well, PerkinElmer). Radioactivity was counted with a TopCount (PerkinElmer). […] Saturation binding experiments were performed similar to the competition binding experiments using a radioligand concentrations ranging from 0.011 to 3.0 nM. […] Is Clozapine selective for the dopamine D4 receptor? […] Real-time analysis of dopamine: antagonist interactions at recombinant human D2long receptor upon modulation of its activation state. Brit. J.

Row | SMILES | D3 p Ki [1] | D2 fp Ki [2] | D2 p Ki [3] | Ki ([3]; read-out: D2 p Ki (converted)) | Ki [2]
1 | Cc1ncoc1-c1nnc(SCCCN2CCOC(c3ccc(F)cc3)C2)n1C (single isomer, unassigned) [Example 3, (2R or 2S)-2-(4-fluorophenyl)-4-(3-({[4-methyl-5-(4-methyl-1,3-oxazol-5-yl)-4H-1,2,4-triazol-3-yl]sulfanyl}propyl)morpholine] | 6.56 | <5 |  |  | 
2 | Cc1ncoc1-c1nnc(SCCCCN2CCO[C@H](c3ccc(C(F)(F)F)cc3)C2)n1C (single isomer, unassigned) [Example 6, (2R or 2S)-4-(4-{[4-methyl-5-(4-methyl-1,3-oxazol-5-yl)-4H-1,2,4-triazol-3-yl]sulfanyl}butyl)-2-[4-(trifluoromethyl)phenyl]morpholine] | 7.11 | <5 |  |  | 
3 | Cc1ncoc1-c1nnc(SCCCN2CCO[C@H](c3ccc(C(F)(F)F)cc3)C2)n1C (single isomer, unassigned) [Example 9, (2R or 2S)-4-(3-{[4-methyl-5-(4-methyl-1,3-oxazol-5-yl)-4H-1,2,4-triazol-3-yl]sulfanyl)}propyl)-2-[4-(trifluoromethyl)phenyl]morpholine] |  | 5.64 | 5.36 |  | 
4 | Cc1ncoc1-c1nnc(SCCCN2CCO[C@H](c3ccc(C(F)(F)F)cc3)C2)n1C (single isomer, unassigned) [Example 10, (2R or 2S)-4-(3-({[4-methyl-5-(4-methyl-1,3-oxazol-5-yl)-4H-1,2,4-triazol-3-yl]sulfanyl}propyl)-2-[4-(trifluoromethyl)phenyl]morpholine hydrochloride] |  |  |  | 11.7 µM | > 10 µM
5 | Cc1ncoc1-c1nnc(SCCCN2CCOC(c3ccc(F)cc3)C2)n1C (stereo not shown) [Example 1] | 6.37 |  |  |  | > 10 µM
6 | Cc1ncoc1-c1nnc(SCCCCN2CCOC(c3ccc(C(F)(F)F)cc3)C2)n1C (stereo not shown) [Example 4, 4-(4-{[4-methyl-5-(4-methyl-1,3-oxazol-5-yl)-4H-1,2,4-triazol-3-yl]sulfanyl}butyl)-2-[4-(trifluoromethyl)phenyl]morpholine] | 7.05 |  |  |  | > 10 µM
7 | Cn1c(SCCCN2CCOC(c3ccc(C(F)(F)F)cc3)C2)nnc1-c1ccc(S(N)(=O)=O)cc1 (stereo not shown) [Example 33, 4-{4-methyl-5-[(3-{2-[4-(trifluoromethyl)phenyl]morpholine-4-yl}propyl)sulfanyl]-4H-1,2,4-triazol-3-yl}benzene-1-sulfonamide] | 6.87 |  | <4.5 |  | 
8 | Cc1ncoc1-c1nnc(SCCCN2CCOC(c3ccc(C(F)(F)F)cc3F)C2)n1C (stereo not shown) [Example 34] | 6.71 |  | 4.96 |  | 
9 | Cc1ccc(C2CN(CCCSc3nnc(-c4ccc(-c5noc(C)n5)cc4)n3C)CCO2)cc1 (stereo not shown) [Example 37, 4-[3-({4-methyl-5-[4-(5-methyl-1,2,4-oxadiazol-3-yl)phenyl]-4H-1,2,4-triazol-3-yl}sulfanyl)propyl]-2-(4-methylphenyl)morpholine] | 7.07 |  | 4.50 |  | 31.6 µM
